Results as given in US6982276B2, “Polymorphs of an epothilone analog” (Bristol-Myers Squibb Company, priority 2000, dated 2006).

Experiment: Solution calorimetry (Thermometrics Microcalorimeter) in ethanol at 25° C.
Assay type: physicochemical
Conditions: for Heat of Solution: in ethanol at 25° C.
Description: Solution calorimetry was determined using a Thermometrics Microcalorimeter in ethanol at 25° C. The solubilities were likewise determined at 25° C.

| SMILES | Relative stability of the polymorph forms (concluded from the data, particularly the heat of solution) | Heat of Solution [kcal/mol] |
| --- | --- | --- |
| C/C(=C\c1csc(C)n1)[C@@H]1CC2O[C@]2(C)CCC[C@H](C)[C@H](O)[C@@H](C)C(=O)C(C)(C)[C@@H](O)CC(=O)N1 (single isomer, unassigned) [Form A, [1S-[1R*,3R*(E),7R*,10S*,11R*,12R*,16S*]]-7,11-Dihydroxy-8,8,10,12,16-pentamethyl-3-[1-methyl-2-(2-methyl-4-thiazolyl)ethenyl]-4-aza-17-oxabicyclo[14.1.0]heptadecane-5,9-dione, Form A] | more stable | 4.92 |
| C/C(=C\c1csc(C)n1)[C@@H]1CC2O[C@]2(C)CCC[C@H](C)[C@H](O)[C@@H](C)C(=O)C(C)(C)[C@@H](O)CC(=O)N1 (single isomer, unassigned) [Form B, [1S-[1R*,3R*(E),7R*,10S*,11R*,12R*,16S*]]-7,11-Dihydroxy-8,8,10,12,16-pentamethyl-3-[1-methyl-2-(2-methyl-4-thiazolyl)ethenyl]-4-aza-17-oxabicyclo[14.1.0]heptadecane-5,9-dione, Form B] |  | 2.36 |
